Test results: EP4653437A2 (Innovo Therapeutics Inc., priority 2023, dated 2024)

Experiments:
human 15-PGDH = biological target: T1, human 15-PGDH (Homo sapiens, UniProt P15428); test: Evaluation of 15-PGDH inhibitory activity (fluorescence enzyme assay, NAD+/PGE2); type: biochemical; details: human 15-PGDH enzyme, fluorescence Vmax
T1 construct: purchased R&D System 5660-DH
T1 sequence (P15428 1-266): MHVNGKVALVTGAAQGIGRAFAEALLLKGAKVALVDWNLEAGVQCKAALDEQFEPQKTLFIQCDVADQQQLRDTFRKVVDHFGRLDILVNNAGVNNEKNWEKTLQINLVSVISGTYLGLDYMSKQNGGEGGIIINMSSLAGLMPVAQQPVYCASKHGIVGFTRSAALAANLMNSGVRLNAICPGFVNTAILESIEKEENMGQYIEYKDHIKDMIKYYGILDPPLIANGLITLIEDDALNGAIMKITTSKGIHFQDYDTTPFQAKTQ
Description: 15-PGDH inhibition activity of Example compounds was measured as follows. 6.7 ng of human 15-PGDH (R&D System# 5660-DH) enzyme (10 µL) was added to a black 96 well plate, 60 µL of buffer (50 mM Tris-HCl, pH 7.5, 0.01% Tween 20) was added, and 10 µL of 200 µM β-Nicotinamide adenine dinucleotide sodium salt (Sigma, Cat# N0632-5G) was added. 10 µL of (10x) compound solution in DMSO was added and reacted for 10 minutes at room temperature.

A549 cells = test: Measurement of PGE2-increasing activity in A549 cells (IL-1β stimulated, PGE2 quantified in supernatant); type: cell-based; details: Homo sapiens, 24 h; concentration of 1 µM of each compound; IL-1β treated A549 cells; read-out: Increased PGE2 production in A549 cells
Description: A549 cells were prepared at a cell number of 1 x 10^5/mL in F12K medium containing 10% FBS (Fetal Bovine Serum), and 2 x 10^4/200 µL was added to each well of a 96-well cell culture plate, and then cultured in an incubator with 5% CO2 at 37 °C for 24 hours. After the culture was complete and all F12K medium was removed, all wells were washed once with 100 µL of PBS, and treated with 160 µL of serum-free F12K medium. Then, 20 µL of IL-1β diluted 10-fold to a concentration of 1 ng/mL in serum-free F12K medium was treated to wells to be treated with IL-1β, and 20 µL of serum-free F12K medium was treated to wells not treated with IL-1β. For the wells to be treated with the compound, 20 µL of the compound dissolved in 100% DMSO was diluted to a concentration 10 times of the desired compound concentration in serum-free F12K medium so that the final DMSO concentration treated to the cells was 0.1%, and for the wells not to be treated with the compound, 20 µL of DMSO diluted in serum-free F12K medium so that the final DMSO concentration treated to the cells was 0.1% was treated. In order to confirm the increase or decrease in the secretion amount of PGE2 in the supernatant collected after culturing for 24 hours in an incubator with 5% CO2 at 37 °C, PGE2 was quantified using the Prostaglandin E2 Parameter (SKGE004B).

| SMILES | IC50 (human 15-PGDH) [nM] | fold induction at 1 µM (A549 cells) |
| --- | --- | --- |
| O=C(c1cnn2c(-c3cc(Br)cnc3N3CC(CO)C3)cccc12)N1CCCCC1 [Example 363, (7-(5-bromo-2-(3-(hydroxymethyl)azetidin-1-yl)pyridin-3-yl)pyrazolo[1,5-a]pyridin-3-yl)(piperidin-1-yl)methanone] | ≤ 100 | < 1.5 |
| Cn1cnc2ncc(-c3cccc4c(C(=O)N5CCCCC5)cnn34)cc2c1=O [Example 255, 3-methyl-6-(3-(piperidine-1-carbonyl)pyrazolo[1,5-a]pyridin-7-yl)pyrido[2,3-d]pyrimidin-4(3H)-one] | ≤ 100 | > 1.5 |
| O=C(COc1ccc(Cl)cc1)Nc1ccc(-c2cccc3c(C(=O)N4CCCCC4)cnn23)cn1 [Example 410, 2-(4-chlorophenoxy)-N-[5-[3-(piperidine-1-carbonyl)pyrazolo[1,5-a]pyridin-7-yl]-2-pyridyl]acetamide] | ≤ 100 | > 1.5 |
| Nc1nn2c(-c3ccc4c(c3)C(=O)NCC4)cccc2c1C(=O)N1CCCCC1 [Example 159, 7-(2-amino-3-(piperidine-1-carbonyl)pyrazolo[1,5-a]pyridin-7-yl)-3,4-dihydroisoquinolin-1(2H)-one] | 100 to 1000 | > 1.5 |
| N#Cc1ccc(-c2cccc3c(C(=O)N4CCCCC4)cnn23)cc1 [Example 15, 4-(3-(piperidine-1-carbonyl)pyrazolo[1,5-a]pyridin-7-yl)benzonitrile] | ≤ 100 | > 1.5 |
| CC(C)C1CCCN(C(=O)c2cnn3c(-c4ccc5c(c4)C(=O)NC5)cccc23)C1 (stereo not drawn) [Example 400, 6-(3-(3-isopropylpiperidine-1-carbonyl)pyrazolo[1,5-a]pyridin-7-yl)isoindolin-1-one] | ≤ 100 | > 1.5 |
| O=C(c1cnn2c(-c3ccc(N4CC(O)C4)nc3)cccc12)N1CCCCC1 [Example 210, (7-(6-(3-hydroxyazetidin-1-yl)pyridin-3-yl)pyrazolo[1,5-a]pyridin-3-yl)(piperidin-1-yl)methanone] | ≤ 100 | > 1.5 |
| CC(=O)c1cnn2c(-c3ccc(C#N)cc3)cccc12 [Example 152, 4-(3-acetylpyrazolo[1,5-a]pyridin-7-yl)benzonitrile] | 100 to 1000 |  |
| O=C(c1cc2nc(-c3ccc4c(c3)OCCO4)ccc2[nH]1)N1CCCCC1 [Example 178, (5-(2,3-dihydrobenzo[b][1,4]dioxin-6-yl)-1H-pyrrolo[3,2-b]pyridin-2-yl)(piperidin-1-yl)methanone] | 100 to 1000 |  |
| O=C(c1cnn2c(-c3ccccc3)cccc12)C1CCCCC1 [Example 158, cyclohexyl(7-phenylpyrazolo[1,5-a]pyridin-3-yl)methanone] | 100 to 1000 |  |
| Cn1ccc2cc(-c3cccc4c(C(=O)N5CCCCC5)cnn34)ccc2c1=O [Example 139, 2-methyl-6-(3-(piperidine-1-carbonyl)pyrazolo[1,5-a]pyridin-7-yl)isoquinolin-1(2H)-one] | ≤ 100 |  |
| O=C(Cc1cccnc1)Nc1ccc(-c2cccc3c(C(=O)N4CCCCC4)cnn23)cn1 [Example 106, N-(5-(3-(piperidine-1-carbonyl)pyrazolo[1,5-a]pyridin-7-yl)pyridin-2-yl)-2-(pyridin-3-yl)acetamide] | ≤ 100 |  |
| O=C(c1cc2nc(-c3ccc4ccccc4c3)ccc2[nH]1)N1CCCCC1 [Example 189, (5-(naphthalen-2-yl)-1H-pyrrolo[3,2-b]pyridin-2-yl)(piperidin-1-yl)methanone] | > 1000 |  |
| O=C(c1cnc2c(-c3cccc(Cl)c3)cc(F)cn12)N1CCCCC1 [Example 167, (8-(3-chlorophenyl)-6-fluoroimidazo[1,2-a]pyridin-3-yl)(piperidin-1-yl)methanone] | ≤ 100 |  |
| O=C(c1cc2nc(-c3cccc(Cl)c3)ccc2[nH]1)N1CCCCC1 [Example 185, (5-(3-chlorophenyl)-1H-pyrrolo[3,2-b]pyridin-2-yl)(piperidin-1-yl)methanone] | 100 to 1000 |  |
| O=C(c1cnn2c(-c3cc4ccccc4o3)cccc12)N1CCCCC1 [Example 123, (7-(benzofuran-2-yl)pyrazolo[1,5-a]pyridin-3-yl)(piperidin-1-yl)methanone] | ≤ 100 |  |
| O=C(c1cnn2c(-c3ccc4[nH]c(=O)ccc4c3)cccc12)N1CCCCC1 [Example 145, 6-(3-(piperidine-1-carbonyl)pyrazolo[1,5-a]pyridin-7-yl)quinolin-2(1H)-one] | ≤ 100 |  |
| CN1Cc2cc(-c3cccc4c(C(=O)N5CCCCC5)cnn34)ccc2C1=O [Example 144, 2-methyl-5-(3-(piperidine-1-carbonyl)pyrazolo[1,5-a]pyridin-7-yl)isoindolin-1-one] | ≤ 100 |  |
| O=C(c1cc2nc(-c3ccc(O)c(Cl)c3)ccc2[nH]1)N1CCCCC1 [Example 186, (5-(3-chloro-4-hydroxyphenyl)-1H-pyrrolo[3,2-b]pyridin-2-yl)(piperidin-1-yl)methanone] | 100 to 1000 |  |
| O=C(c1cnn2c(-c3cccc([N+](=O)[O-])c3)cccc12)N1CCCCC1 [Example 5, (7-(3-nitrophenyl)pyrazolo[1,5-a]pyridin-3-yl)(piperidin-1-yl)methanone] | ≤ 100 |  |
| Nc1ccc(-c2cccc3c(C(=O)N4CCCCC4)cnn23)cc1 [Example 14, (7-(4-aminophenyl)pyrazolo[1,5-a]pyridin-3-yl)(piperidin-1-yl)methanone] | ≤ 100 |  |
| O=C(c1cnn2c(-c3cccc4ccccc34)cccc12)N1CCCCC1 [Example 128, (7-(naphthalen-1-yl)pyrazolo[1,5-a]pyridin-3-yl)(piperidin-1-yl)methanone] | ≤ 100 |  |
| CC(=O)Nc1ccc(-c2cccc3c(C(=O)N4CCCCC4)cnn23)cc1 [Example 97, N-(4-(3-(piperidine-1-carbonyl)pyrazolo[1,5-a]pyridin-7-yl)phenyl)acetamide] | ≤ 100 |  |
| O=C(c1cnn2c(-c3ccc4cn[nH]c4c3)cccc12)N1CCCCC1 [Example 125, (7-(1H-indazol-6-yl)pyrazolo[1,5-a]pyridin-3-yl)(piperidin-1-yl)methanone] | ≤ 100 |  |
| Nc1ccc(-c2cccn3c(C(=O)N4CCCCC4)cnc23)cc1 [Example 164, (8-(4-aminophenyl)imidazo[1,2-a]pyridin-3-yl)(piperidin-1-yl)methanone] | > 1000 |  |
| O=C(c1n[nH]c2c(-c3cccc(Cl)c3)cccc12)N1CCCCC1 [Example 161, (7-(3-chlorophenyl)-1H-indazol-3-yl)(piperidin-1-yl)methanone] | > 1000 |  |
| O=C(c1cc2ncc(-c3ccc4c(c3)OCO4)cc2[nH]1)N1CCCCC1 [Example 172, (6-(benzo[d][1,3]dioxol-5-yl)-1Hpyrrolo[3,2-b]pyridin-2-yl)(piperidin-1-yl)methanone] | > 1000 |  |
| O=C(c1cc2nc(N3Cc4ccccc4C3=O)ccc2[nH]1)N1CCCCC1 [Example 191, 2-(2-(piperidine-1-carbonyl)-1H-pyrrolo[3,2-b]pyridin-5-yl)isoindolin-1-one] | 100 to 1000 |  |
| Cc1cc(-c2ccnc(Cl)c2)c2ncc(C(=O)N3CCCCC3)n2c1 [Example 166, (8-(2-chloropyridin-4-yl)-6-methylimidazo[1,2-a]pyridin-3-yl)(piperidin-1-yl)methanone] | 100 to 1000 |  |
